The results in this text go back to patent US20240116945A1, “EXATECAN-DERIVED TOPOISOMERASE-1 INHIBITORS PHARMACEUTICAL COMPOSITIONS, AND USES THEREOF” (Merck Sharp & Dohme LLC, priority 2022, published 2024).

Counter-ions that a name gives are not always drawn.

The first assay deals with Jeko-1 cells. As to the kind of experiment: CellTiter-Glo 2.0 Cytotoxicity Assay. The settings on record: Homo sapiens, JeKo-1, read-out: Jeko-1 EC50 (nM), Jeko-1 cells, 3000 cells/well; compounds added Day 1; CellTiter-Glo 2.0 luminescence read on Day 4 or 5. The class given is cell-based. The protocol: Reaction progress and synthetic intermediate analysis were assessed by LCMS (UV detection with ESI, APCI, or other mass detection) when applicable using a MeCN/water gradient with either TFA, formic acid, or NH4HCO3 modifier. Silica gel and reverse-phase flash column chromatography were conducted with commercially available pre-packed columns. Reverse-phase preparative HPLC purification was performed on preparative HPLC instruments with UV and MS detection using a MeCN/water gradient with either TFA, formic acid, or NH4OH modifier. ^1H NMR spectra were collected at room temperature, and chemical shifts are reported in ppm relative to the residual proteo-solvent signals, and multiplicities, coupling constants (where applicable), and signal integrations are listed parenthetically. Unless otherwise noted, all EC50 data presented in tables refers to the CellTiter-Glo® 2.0 Cytotoxicity Assay that is described in the Biological Assay section.
CellTiter-Glo® 2.0 Cytotoxicity Assay
Step 1: Seed 384-Well Plates for Assay (45 μL Per Well) on Day 0
Jeko-1 cells were quickly thawed in a cryo-vial by incubating them in a 37° C. water bath for <1 min until there is just a small bit of ice left in the vial. The vial was promptly removed and wiped down with 70% ethanol. The cells were transferred from the vial to a sterile centrifuge tube containing 8 mL of pre-warmed cell culture medium. The vial was flushed with an additional 1 mL of medium to ensure complete transfer of cells to the centrifuge tube. The cells were then centrifuged at 150×g for 5 minutes. The supernatant was aspirated, and the cell pellet was resuspended in 10-20 mL cell culture medium. Cells were counted using Vi-cell and prepared 6.6×10^4 cells/ml, 3000 cells/45 μL per well. Then added 45 μL/well of cells into Corning® 384-well Low Flange White Flat Bottom Polystyrene TC-treated Microplates (Corning, Cat #3570) using Standard Cassette Combi (if needed, dispense 1 dummy plate at 20 μL to help normalize Combi, using medium speed). The plates were spun down at 150×g for 30 seconds.
Step 2: Add Compounds on Day 1
The compound plates and reference compound stock were taken out and allowed to thaw at RT. The tubes were centrifuged at 2000×g for 30 seconds. The 10× Intermediate assay plates (Greiner plate, Cat #781280) were prepared using an Echo liquid handler. Proper buffer (HBSS (Gibco, Cat #14025-092)+10 mM HEPES (Gibco, Cat #15630-080)+0.1% BSA (Sigma, Cat #A9576)) were used to make serial dilutions. Media (no cells) was used for Max_E. Compound (5 μL of 10×) was transferred from intermediate plate to assay plate using a Bravo liquid handler using a very slow speed so the cell monolayer wasn't disturbed. The plates were spun down at 150×g for 30 seconds.
Step 3: CellTiter-Glo 2.0 Assay (Promega, Cat #G9242) on Day 4 or 5 (CellTiter-Glo Kit Stored at −70° C.)
The CellTiter-Glo® 2.0 Reagent was thawed at 4° C. overnight, taking care not to expose the reagent to temperatures above 25° C.). The kit was equilibrated to RT for approximately 30 minutes. CellTiter-Glo® 2.0 Reagent (20 μl) was added to 50 μl of medium containing cells using Standard Cassette Combi. The contents were mixed for 2-3 minutes on an orbital shaker to induce cell lysis. The plates were spun down at 150×g for 30 seconds. The plates were allowed to incubate at RT for 5 minutes to stabilize the luminescent signal.
Illustrative compounds of the present disclosure were tested in the above assay in Example 15, and results are provided in the Table 9 below: […]
A general note: Cellular ATP, detected with luciferase, serves as a proxy for viable cell number.
Regarding `CC[C@@]1(O)C(=O)OCc2c1cc1n(c2=O)Cc2c-1nc1cc(F)c(C)c3c1c2[C@@H](NC(=O)[C@@H](O)CO)CC3` [Compound 28, (1S,9S)-1-((S)-2,3-dihydroxypropanamido)-9-ethyl-5-fluoro-9-hydroxy-4-methyl-10,13-dioxo-2,3,9,10,13,15-hexahydro-1H,12H-benzo[de]pyrano[3′,4′: 6,7]indolizino[1,2-b]quinolin-7-ium hexafluorophosphate (V)], the EC50 amounted to 9.7 nM.

As for `CC[C@@]1(O)C(=O)OCc2c1cc1n(c2=O)Cc2c-1nc1cc(F)c(C)c3c1c2[C@@H](NC(=O)[C@H](O)CO)CC3` [Compound 29], the EC50 was found to be 3.7 nM.

On to `CC[C@@]1(O)C(=O)OCc2c1cc1n(c2=O)Cc2c-1nc1cc(F)c(C)c3c1c2[C@@H](NC(=O)C(O)C1(CO)CC1)CC3` (stereo partly drawn) [Compound 30, N-((1S,9S)-9-ethyl-5-fluoro-9-hydroxy-4-methyl-10,13-dioxo-2,3,9,10,13,15-hexahydro-1H,12H-benzo[de]pyrano[3′,4′: 6,7]indolizino[1,2-b]quinolin-1-yl)-2-hydroxy-2-(1-(hydroxymethyl)cyclopropyl)acetamide], for which the EC50 worked out at 2.5 nM.

`CC[C@@]1(O)C(=O)OCc2c1cc1n(c2=O)Cc2c-1nc1cc(F)c(C)c3c1c2[C@@H](NC(=O)[C@@H](CCO)OC)CC3` [Compound 31, (R)—N-((1S,9S)-9-ethyl-5-fluoro-9-hydroxy-4-methyl-10,13-dioxo-2,3,9,10,13,15-hexahydro-1H,12H-benzo[de]pyrano[3′,4′: 6,7]indolizino[1,2-b]quinolin-1-yl)-4-hydroxy-2-methoxybutanamide]: the EC50 stood at 4.1 nM.

In the case of `CC[C@@]1(O)C(=O)OCc2c1cc1n(c2=O)Cc2c-1nc1cc(F)c(C)c3c1c2[C@@H](NC(=O)[C@@H](C)CO)CC3` [Compound 32, (S)—N-((1S,9S)-9-ethyl-5-fluoro-9-hydroxy-4-methyl-10,13-dioxo-2,3,9,10,13,15-hexahydro-1H,12H-benzo[de]pyrano[3′,4′: 6,7]indolizino[1,2-b]quinolin-1-yl)-3-hydroxy-2-methylpropanamide], the EC50 was determined as 1.4 nM.

Take `CC[C@@]1(O)C(=O)OCc2c1cc1n(c2=O)Cc2c-1nc1cc(F)c(C)c3c1c2[C@@H](NC(=O)[C@H](C)CO)CC3` [Compound 33]: the EC50 was 3.8 nM.

Consider `CC[C@@]1(O)C(=O)OCc2c1cc1n(c2=O)Cc2c-1nc1cc(F)c(C)c3c1c2[C@@H](NC(=O)C(C)(C)CCO)CC3` [Compound 38, N-((1S,9S)-9-ethyl-5-fluoro-9-hydroxy-4-methyl-10,13-dioxo-2,3,9,10,13,15-hexahydro-1H,12H-benzo[de]pyrano[3′,4′: 6,7]indolizino[1,2-b]quinolin-1-yl)-4-hydroxy-2,2-dimethylbutanamide], for which the EC50 is 4.6 nM.

For the molecule `CC[C@@]1(O)C(=O)OCc2c1cc1n(c2=O)Cc2c-1nc1cc(F)c(C)c3c1c2[C@@H](NC(=O)C(C)(C)N)CC3` [Compound 41, 2-amino-N-((1S,9S)-9-ethyl-5-fluoro-9-hydroxy-4-methyl-10,13-dioxo-2,3,9,10,13,15-hexahydro-1H,12H-benzo[de]pyrano[3′,4′: 6,7]indolizino[1,2-b]quinolin-1-yl)-2-methylpropanamide formate], the EC50 was determined as 2.3 nM.

With `CC[C@@]1(O)C(=O)OCc2c1cc1n(c2=O)Cc2c-1nc1cc(F)c(C)c3c1c2[C@@H](NC(=O)C(N)CC(C)C)CC3` (stereo partly shown) [Compound 42], the EC50 was found to be 5.5 nM.

`CC[C@@]1(O)C(=O)OCc2c1cc1n(c2=O)Cc2c-1nc1cc(F)c(C)c3c1c2[C@@H](NC(=O)[C@H](O)CN)CC3` [Compound 43]: the EC50 is 27 nM.

As to `CC[C@@]1(O)C(=O)OCc2c1cc1n(c2=O)Cc2c-1nc1cc(F)c(C)c3c1c2[C@@H](NC(=O)[C@@H](O)CN)CC3` [Compound 44], the EC50 turned out to be 78 nM.

Turning to `CC[C@@]1(O)C(=O)OCc2c1cc1n(c2=O)Cc2c-1nc1cc(F)c(C)c3c1c2[C@@H](NC(=O)[C@@H](N)CO)CC3` [Compound 45, (S)-2-amino-N-((1S,9S)-9-ethyl-5-fluoro-9-hydroxy-4-methyl-10,13-dioxo-2,3,9,10,13,15-hexahydro-1H,12H-benzo[de]pyrano[3′,4′: 6,7]indolizino[1,2-b]quinolin-1-yl)-3-hydroxypropanamide formate], the EC50 came out at 27 nM.

For `CC[C@@]1(O)C(=O)OCc2c1cc1n(c2=O)Cc2c-1nc1cc(F)c(C)c3c1c2[C@@H](NC(=O)[C@H](N)CO)CC3` [Compound 46], the EC50 was 5 nM.

With `CC[C@@]1(O)C(=O)OCc2c1cc1n(c2=O)Cc2c-1nc1cc(F)c(C)c3c1c2[C@@H](NC(=O)C(C)(NC(=O)[C@@H](C)N)C(F)F)CC3` (stereo partly shown) [Compound 47], the EC50 was 22 nM.

In the case of `CC[C@@]1(O)C(=O)OCc2c1cc1n(c2=O)Cc2c-1nc1cc(F)c(C)c3c1c2[C@@H](NC(=O)C(C)(N)COC)CC3` (stereo partly shown) [Compound 48], the EC50 was 8.7 nM.

As to `CC[C@@]1(O)C(=O)OCc2c1cc1n(c2=O)Cc2c-1nc1cc(F)c(C)c3c1c2[C@@H](NC(=O)C(F)(F)CCN)CC3` [Compound 49, 4-amino-N-((1S,9S)-9-ethyl-5-fluoro-9-hydroxy-4-methyl-10,13-dioxo-2,3,9,10,13,15-hexahydro-1H,12H-benzo[de]pyrano[3′,4′: 6,7]indolizino[1,2-b]quinolin-1-yl)-2,2-difluorobutanamide], the EC50 worked out at 14 nM.

On to `CC[C@@]1(O)C(=O)OCc2c1cc1n(c2=O)Cc2c-1nc1cc(F)c(C)c3c1c2[C@@H](NC(=O)[C@@H](N)CN)CC3` [Compound 50, (S)-2,3-diamino-N-((1S,9S)-9-ethyl-5-fluoro-9-hydroxy-4-methyl-10,13-dioxo-2,3,9,10,13,15-hexahydro-1H,12H-benzo[de]pyrano[3′,4′: 6,7]indolizino[1,2-b]quinolin-1-yl)propanamide formate], for which the EC50 came to 90 nM.

Turning to `CC[C@@]1(O)C(=O)OCc2c1cc1n(c2=O)Cc2c-1nc1cc(F)c(C)c3c1c2[C@@H](NCCCO)CC3` [Compound 52], the EC50 is 5.1 nM.

For `CC[C@@]1(O)C(=O)OCc2c1cc1n(c2=O)Cc2c-1nc1cc(F)c(C)c3c1c2[C@@H](NCC(=O)NC(C)C)CC3` [Compound 55], the EC50 was found to be 8.8 nM.

Turning to `CC[C@@]1(O)C(=O)OCc2c1cc1n(c2=O)Cc2c-1nc1cc(F)c(C)c3c1c2[C@@H](NCc1ccccc1CO)CC3` [Compound 56], the EC50 was found to be 5.5 nM.

In the case of `CC[C@@]1(O)C(=O)OCc2c1cc1n(c2=O)Cc2c-1nc1cc(F)c(C)c3c1c2[C@@H](NCC(C)(F)F)CC3` [Compound 57], the EC50 stood at 6.2 nM.

As to `CC[C@@]1(O)C(=O)OCc2c1cc1n(c2=O)Cc2c-1nc1cc(F)c(C)c3c1c2[C@@H](NCC(F)(F)C(F)F)CC3` [Compound 58], the EC50 was found to be 6.2 nM.

Consider `CC[C@@]1(O)C(=O)OCc2c1cc1n(c2=O)Cc2c-1nc1cc(F)c(C)c3c1c2[C@@H](NC(C)C(F)F)CC3` (stereo partly shown) [Compound 59], for which the EC50 is 5.4 nM.

As to `CC[C@@]1(O)C(=O)OCc2c1cc1n(c2=O)Cc2c-1nc1cc(F)c(C)c3c1c2[C@@H](N(C)CC(F)F)CC3` [Compound 60, (1S,9S)-1-((2,2-difluoroethyl)(methyl)amino)-9-ethyl-5-fluoro-9-hydroxy-4-methyl-1,2,3,9,12,15-hexahydro-10H,13H-benzo[de]pyrano[3′,4′: 6,7]indolizino[1,2-b]quinoline-10,13-dione], the EC50 came to 9.6 nM.

Still in this assay, the particulars now being: Homo sapiens; Jeko-1 cells, 3000 cells/well; compounds added Day 1; CellTiter-Glo 2.0 luminescence read on Day 4 or 5; read-out: Jeko-1 EC50.
As for `CC[C@@]1(O)C(=O)OCc2c1cc1n(c2=O)Cc2c-1nc1cc(F)c(C)c3c1c2[C@@H](NCCO)CC3` [Compound 51, (1S,9S)-9-ethyl-5-fluoro-9-hydroxy-1-((2-hydroxyethyl)amino)-4-methyl-1,2,3,9,12,15-hexahydro-10H,13H-benzo[de]pyrano[3′,4′: 6,7]indolizino[1,2-b]quinoline-10,13-dione formate], the EC50 came to 3.7 nM.
